Measured values: US9061066B2 (priority 2010, dated 2015)

How the values were obtained:
[1] = test system: CD8+ OT-I T cells in C57B1/6 Ly5.1 mice; details: mouse, in vivo, sc
[2] = test system: mouse DCs; type: cell-based
[3] = test system: mouse DCs; type: cell-based; remark: listed apart in the source

Row | Substance | OT-I T cell proliferation in the draining lymph node [1] | surface expression of CD80, CD86, CD40 and MHC class II, comparison of cyclic glucan structures [2] | TNF-alpha and IL-12 secretion, comparison of cyclic glucan structures [3]
1 | Poly I/C | OT-I T cell proliferation |  | 
2 | methyl-cyclodextrin [MβCD] |  | failed to significantly activate DC | none of the cytokines were secreted
